SMILES strings stand for the structures.

This experiment deals with T1, human cathepsin K (Homo sapiens, UniProt P43235).
T1 construct: The proform of cathepsin K was converted to mature cathepsin K by brief exposure to pH 4; made in house; host or cells: baculovirus; Trichoplusia ni High Five cells (virus raised in Sf-9)
T1 sequence (P43235 115-329): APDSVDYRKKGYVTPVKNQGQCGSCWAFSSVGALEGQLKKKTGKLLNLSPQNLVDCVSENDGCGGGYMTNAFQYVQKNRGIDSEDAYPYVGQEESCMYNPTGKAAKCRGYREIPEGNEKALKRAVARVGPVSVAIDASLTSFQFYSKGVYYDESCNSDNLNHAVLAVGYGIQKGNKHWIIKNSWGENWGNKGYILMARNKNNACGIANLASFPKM
The experiment can be described thus: Cathepsin K inhibition assay, human recombinant enzyme, fluorogenic substrate Cbz-Phe-Arg-AMC. It counts as biochemical. The following applies: Table 1, human cathepsin K; read-out: h Cat K IC50. In outline:
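Recombinant human cathepsin K (baculovirus/insect-cell proform, activated at pH 4 with 5 mM L-cysteine) assayed with 10 μM Cbz-Phe-Arg-AMC, 10% DMSO, 30 °C.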
Regarding `CCCC[C@H](NC(=O)O[C@@H]1CN(C(=O)Cc2ccc(-c3ccccc3)cc2)CC1(C)C)C(=O)C(=O)N[C@H](C)c1ccccc1` [Example 30, (3S)-1-([1,1′-Biphenyl]-4-ylacetyl)-4,4-dimethylpyrrolidinyl (1S)-1-(oxo {[(1R)-1-phenylethyl]amino}acetyl)pentylcarbamate], the IC50 was in the range of 10 to 100 nM.

For the compound `CCCC[C@H](NC(=O)OC1CN(C(=O)Oc2ccccc2)CC1(C)C)C(=O)C(=O)N[C@H](C)c1ccccc1` (stereo partly drawn) [Example 62, Phenyl 3,3-dimethyl-4-[({[(1S)-1-(oxo{[(1R)-1-phenylethyl]amino}acetyl)pentyl]amino}carbonyl)oxy]-1-pyrrolidinecarboxylate], the IC50 was 10 to 100 nM.

On to `CCCCC(NC(=O)O[C@@H]1CN(C(=O)Cc2cccnc2)CC1(C)C)C(=O)C(=O)N[C@H](C)c1ccccc1` (stereo partly drawn) [Example 33, (3S)-4,4-Dimethyl-1-(3-pyridinylacetyl)pyrrolidinyl 1-(oxo{[(1R)-1-phenylethyl]amino}acetyl)pentylcarbamate], for which the 50% inhibitory concentration (IC50) lay within 10 to 100 nM.

`CCCC[C@H](NC(=O)O[C@@H]1CN(C(=O)OCc2c(C)noc2-c2cc(C)on2)CC1(C)C)C(=O)C(=O)N[C@H](C)c1ccccc1` [Example 50, [3-Methyl-5-(5-methyl-isoxazol-3-yl)-4-isoxazolyl]methyl (4S)-3,3-dimethyl-4-[({[(1S)-1-(oxo{[(1R)-1-phenylethyl]amino}acetyl)pentyl]amino}carbonyl)oxy]-1-pyrrolidinecarboxylate]: the concentration for half-maximal inhibition (IC50) is 10 to 100 nM.

As for `CCCC[C@H](NC(=O)O[C@@H]1CN(C(=O)c2snnc2C)CC1(C)C)C(=O)C(=O)N[C@H](C)c1ccccc1` [Example 13, (3S)-4,4-Dimethyl-1-[(4-methyl-1,2,3-thiadiazol-5-yl)carbonyl]pyrrolidinyl (1S)-1-(oxo {[(1R)-1-phenylethyl]amino}acetyl)pentylcarbamate], the IC50 is 10 to 100 nM.

`CCCC[C@H](NC(=O)O[C@@H]1CN(C(=O)CCCc2ccccc2)CC1(C)C)C(=O)C(=O)N[C@H](C)c1ccccc1` [Example 24, (3S)-4,4-Dimethyl-1-(4-phenylbutanoyl)pyrrolidinyl (1S)-1-(oxo {[(1R)-1-phenylethyl]amino}acetyl)pentylcarbamate]: the IC50 was 10 to 100 nM.

As for `CNC(=O)NCCCC[C@H](NC(=O)O[C@@H]1C(=O)OCC1(C)C)C(=O)C(=O)N[C@H](C)c1ccccc1` [Example 2, (3S)-4,4-dimethyl-2-oxotetrahydro-3-furanyl (1S)-5-{[(methylamino)carbonyl]amino}-1-(oxo{[(1R)-1-phenylethyl]amino}acetyl)pentylcarbamate], the IC50 was 1 to 10 nM.

Regarding `CCCC[C@H](NC(=O)O[C@@H]1CN(C(=O)c2c(-c3ccccc3)noc2C)CC1(C)C)C(=O)C(=O)N[C@H](C)c1ccccc1` [Example 27, (3S)-4,4-Dimethyl-1-[(5-methyl-3-phenyl-4-isoxazolyl)carbonyl]pyrrolidinyl (1S)-1-(oxo{[(1R)-1-phenylethyl]amino}acetyl)pentylcarbamate], the concentration for half-maximal inhibition (IC50) is 10 to 100 nM.

In the case of `CCCC[C@H](NC(=O)O[C@@H]1CN(C(=O)Nc2ccccc2)CC1(C)C)C(=O)C(=O)N[C@H](C)c1ccccc1` [Example 63, (3S)-1-(Anilinocarbonyl)-4,4-dimethylpyrrolidinyl (1S)-1-(oxo{[(1R)-1-phenylethyl]amino}acetyl)pentylcarbamate], the IC50 fell in the range of 1 to 10 nM.

`CCCC[C@H](NC(=O)O[C@@H]1CN(C(=O)c2ccc3[nH]nnc3c2)CC1(C)C)C(=O)C(=O)N[C@H](C)c1ccccc1` [Example 22, (3S)-1-(1H-1,2,3-Benzotriazol-5-ylcarbonyl)-4,4-dimethylpyrrolidinyl (1S)-1-(oxo{[(1R)-1-phenylethyl]amino}acetyl)pentylcarbamate]: the IC50 fell in the range of 1 to 10 nM.

`CCCC[C@H](NC(=O)O[C@@H]1CN(C(=O)c2ccc3ccccc3c2)CC1(C)C)C(=O)C(=O)N[C@H](C)c1ccccc1` [Example 18, (3S)-4,4-Dimethyl-1-(2-naphthoyl)pyrrolidinyl (1S)-1-(oxo {[(1R)-1-phenylethyl]amino}acetyl)pentylcarbamate]: the IC50 is 1 to 10 nM.

As to `CCCC[C@H](NC(=O)O[C@@H]1CN(C(=O)c2nc[nH]n2)CC1(C)C)C(=O)C(=O)N[C@H](C)c1ccccc1` [Example 34, (3S)-4,4-Dimethyl-1-(1H-1,2,4-triazol-3-ylcarbonyl)pyrrolidinyl (1S)-1-(oxo{[(1R)-1-phenylethyl]amino}acetyl)pentylcarbamate], the concentration for half-maximal inhibition (IC50) was in the range of 10 to 100 nM.

As to `CCCC[C@H](NC(=O)O[C@@H]1CN(c2nc3ccccc3s2)CC1(C)C)C(=O)C(=O)Nc1ccn[nH]1` [Example 81, (3S)-1-(1,3-Benzothiazol-2-yl)-4,4-dimethylpyrrolidinyl (1S)-1-[oxo(1H-pyrazol-5-ylamino)acetyl]pentylcarbamate], the 50% inhibitory concentration (IC50) is 0.1 to 1 nM.

As for `CCCC[C@H](NC(=O)O[C@@H]1CN(C(=O)Cc2ccccc2)CC1(C)C)C(=O)C(=O)N[C@H](C)c1ccccc1` [Example 11, (3S)-4,4-Dimethyl-1-(phenylacetyl)pyrrolidinyl (1S)-1-(oxo{[(1R)-1-phenylethyl]amino}acetyl)pentylcarbamate], the 50% inhibitory concentration (IC50) is 1 to 10 nM.

With `CCCC[C@H](NC(=O)O[C@@H]1CN(C(=O)c2ccc(-c3ccccc3)cc2)CC1(C)C)C(=O)C(=O)N[C@H](C)c1ccccc1` [Example 20], the half-inhibitory concentration (IC50) was 1 to 10 nM.

Turning to `CCCC[C@H](NC(=O)O[C@@H]1CN(C(=O)Oc2ccc(-c3ccccc3)cc2)CC1(C)C)C(=O)C(=O)N[C@H](C)c1ccccc1` [Example 57, [1,1′-Biphenyl]-4-yl (4S)-3,3-dimethyl-4-[({[(1S)-1-(oxo{[(1R)-1-phenylethyl]amino}acetyl)pentyl]amino}carbonyl)oxy]-1-pyrrolidinecarboxylate], the half-maximal inhibitory concentration (IC50) was 1 to 10 nM.

`CCCC[C@H](NC(=O)O[C@@H]1CN(C(=O)Oc2ccc(Oc3ccccc3)cc2)CC1(C)C)C(=O)C(=O)N[C@H](C)c1ccccc1` [Example 58, 4-Phenoxyphenyl (4S)-3,3-dimethyl-4-[({[(1S)-1-(oxo{[(1R)-1-phenylethyl]amino}acetyl)pentyl]amino}carbonyl)oxy]-1-pyrrolidinecarboxylate]: the IC50 was in the range of 10 to 100 nM.

As to `CCCC[C@H](NC(=O)O[C@@H]1CN(S(=O)(=O)Cc2ccccc2)CC1(C)C)C(=O)C(=O)N[C@H](C)c1ccccc1` [Example 78, (3S)-1-(Benzylsulfonyl)-4,4-dimethylpyrrolidinyl (1S)-1-(oxo{[(1R)-1-phenylethyl]amino}acetyl)pentylcarbamate], the IC50 is 10 to 100 nM.

On to `CCCC[C@H](NC(=O)O[C@@H]1CN(C(=O)Cc2ccc(F)cc2)CC1(C)C)C(=O)C(=O)N[C@H](C)c1ccccc1` [Example 39, (3S)-1-[(4-Fluorophenyl)acetyl]-4,4-dimethylpyrrolidinyl (1S)-1-(oxo{[(1R)-1-phenylethyl]amino}acetyl)pentylcarbamate], for which the half-maximal inhibitory concentration (IC50) is 10 to 100 nM.

In the case of `CCCC[C@H](NC(=O)O[C@@H]1CN(C(=O)c2csc(-c3snnc3C)n2)CC1(C)C)C(=O)C(=O)N[C@H](C)c1ccccc1` [Example 37, (3S)-4,4-Dimethyl-1-{[2-(4-methyl-1,2,3-thiadiazol-5-yl)-1,3-thiazol-4-yl]carbonyl}pyrrolidinyl (1S)-1-(oxo{[(1R)-1-phenylethyl]amino}acetyl)pentylcarbamate], the IC50 was in the range of 10 to 100 nM.

Consider `CCCC[C@H](NC(=O)O[C@@H]1CN(C(=O)O[C@@H]2CCOC2)CC1(C)C)C(=O)C(=O)N[C@H](C)c1ccccc1` [Example 56, (3R)-Tetrahydro-3-furanyl (4S)-3,3-dimethyl-4-[({[(1S)-1-(oxo{[(1R)-1-phenylethyl]amino}acetyl)pentyl]amino}carbonyl)oxy]-1-pyrrolidinecarboxylate], for which the IC50 was 10 to 100 nM.

What is called IC50 is the concentration at which inhibition is half-maximal.

The record behind these values is patent publication US7402606B2, “Derivatives of 1-(oxoaminoacetyl) pentylcarbamate as cathepsin K inhibitors for the treatment of bone loss” (SmithKline Beecham Corporation, priority 2002, dated 2008).
